Experimental data published in patent US7115566B2, “Compounds and method for the prevention and treatment of diabetic retinopathy” (University of Florida, priority 1997, dated 2006).

Key:
cytomegalovirus (CMV) = conditions: cited from earlier work
[1] = system: retinal neovascularization; assay: intravitreal IGF-1 rabbit model of retinal angiogenesis; format: in vivo, pigmented rabbits; conditions: for ophthalmoscopy findings: all rabbits
Description: Pigmented rabbits were selected for study after considering the ocular anatomy, animal supply and established use of the species in ophthalmology. Growth factor was injected into the vitreous of pigmented rabbits (n=30) as previously described. Briefly, rabbits were anesthetized with ketamine and xylazine and a 30 g needle was used to withdraw 80 μl of fluid from the anterior eye chamber under an operating microscope. Then a 30 g needle was used to administer 0.1 ml of balanced salt solution containing 600 μg of IGF-1 adjacent to the surface of the retina near the optic nerve head. The rabbits were placed in a supine position for 30–60 minutes to facilitate solution dispersal onto the vascularized medullary ray and disc. Control animals (n=10) received the same dose of heat-inactivated protein (IGF-I held at 100° C. for 30 min). Animals were periodically examined using indirect ophthalmoscopy, fundus photography, and fluorescein angiography from days 2 through 21.
The temporal sequence of the anatomical changes seen in the IGF 1-injected eyes is as follows. […] The fundus of control eyes remained normal in appearance. […] Numerous distended vessels with edematous endothelial cells were found on the surface of the retina along with extensive proliferation of their extracellular matrix. […] Reduplication of the basement membrane, a strong indicator of endothelial cell hyperreactivity, was a consistent finding in all IGF-1 treated eyes. Endothelial cell mitosis was validated using antibody to proliferating cell nuclear antigen. Systemic unpackaged peptide, e.g. lanreotide can be tested for its ability to inhibit IGF-1 induced neovascularization in this rabbit model.

insulin secretion = conditions: normal physiological conditions; cited from earlier work
[2] = in vivo; cited from earlier work
[3] = compared with octreotide; cited from earlier work
[4] = continuous infusion pump for 4 weeks, cited from earlier work
[5] = after a similar dose (200 μg/kg); cited from earlier work
[6] = system: chorioallantoic membrane of the developing chick embryo; conditions: chick chorioallantoic membrane assay; cited from earlier work
[7] = several months of continuous infusion; 4 patients; cited from earlier work
[8] = system: human retinal endothelial cells (HREC); assay: proliferation and [3H] thymidine incorporation in growth factor stimulated HREC; format: cell-based
[9] = pilot study of continuous octreotide infusion to prevent progression of diabetic retinopathy; format: in vivo, human
[10] = octreotide in patients with severe proliferative diabetic retinopathy (Grant, 1987–1994)
[11] = six patients, 25 to 100 μg three times a day

For `Nc1nc(O)c2ncn(COC(CO)CO)c2n1` [ganciclovir], the CMV-encephalitis (cytomegalovirus (CMV); at autopsy) is given as “widespread CMV-encephalitis” and the “treatment of CMV retinitis” value (cytomegalovirus (CMV); verified at autopsy) is given as “successful treatment of CMV retinitis”.
In the case of “IGF-1: insulin-like growth factor 1, injected intravitreally to induce retinal neovascularization”, the ophthalmoscopy findings ([1]; 3 days after intravitreal injection of 600 μg) is reported as “hyperemia with vascular engorgement”, the “microscopic findings on the surface of the retina” value ([1]; all eyes treated) is reported as “abnormal vessels were observed on the surface of the retina” and the ophthalmoscopy findings ([1]; by day 7) is reported as “Vascular tortuosity, intraretinal hemorrhage, and severe increased hyperemia surrounding the optic disc”. The ophthalmoscopy findings ([1]; by day 21) was “Fibrosis developed over the optic disc and medullary ray”.
In the case of lanreotide, the “effect on insulin secretion” value (insulin secretion) is listed as “suppress insulin secretion”, the excreted intact [2] is listed as greater than 90% and the “stability of the peptide” value [2] is listed as “stable”. For the same compound, the clinical tolerance [3] was “better tolerated than octreotide”, the disease regressed [4] was 2 patients and the disease progression halted ([4]; subjects who completed dosing) was 8 of 8. The “LNT levels in rat eyes” value [5] was “unable to detect significant LNT levels” and the inhibition of angiogenesis [6] was “more potent in inhibiting angiogenesis compared to the natural somatostatin tetradecapeptide”.
In the case of octreotide, the retinal function [7] is listed as “improved”, the “[3H] thymidine incorporation” value ([8]; IGF-1 and b-FGF stimulated HREC) is listed as “dose-dependent inhibition” and the “proliferation of HREC” value ([8]; IGF-1 stimulated cultures) is listed as “significantly decreased”. The “inhibitory effect on proliferation of HREC” value ([8]; b-FGF stimulated cultures) was 40–45%, the cell proliferation ([8]; cells grown in control medium) was “minimal effect” and the HgA1c ([9]; four octreotide-treated subjects, within the first 6 months of therapy) was “normalized”. The “suppression of GH and IGF-1 levels into the hypopituitary range” value ([9]; four patients) was “not achieved in any patient”, the “clinical or angiographic improvement” value ([9]; four patients, continuous infusion, doses up to 5000 μg/day) was “no patient showed clear clinical or angiographic improvement” and the “progression to high risk characteristics requiring laser therapy” value ([9]; four patients, in at least one eye) was “Laser therapy was initiated in all four patients”. For the same compound, the visual acuity ([9]; patients receiving octreotide) was “statistically significant improvement”, the HgA1c ([10]; all seven study patients) was “reductions” and the sense of well-being ([10]; all seven study patients) was “improved”. For the same compound, the visual acuity ([10]; all seven study patients) was “improved”, the posterior pole neovascularization ([10]; seventh patient) was “not affected” and the “side effects leading to stopping the drug” value ([10]; seventh patient) was “gastrointestinal side effects”. For the same compound, the iris neovascularization ([10]; seventh patient with severe bilateral neovascular glaucoma) was “regressed completely”, the “disease progression during treatment period” value [10, 11] was “None of the six patients showed disease progression” and the “regression of NVD” value [10, 11] was “four”.
